*1 amine or outer side, *2 acyl side, *3 side chain or, on linkers, in order; H or OH if unused. Where a SMILES comes first, the peptide text is derived from it. Bridges are numbered along the chain shown (N, C = ends). [ ]: non-standard residue; d: D form. Trp(1-CH2CO) = O=C([C@H](Cc1cn(CC(=O)[*:3])c2ccccc12)N[*:1])[*:2]; X25 = O=C([C@H](CNCc1cc(F)c(B(O)O[*:3])c(F)c1)N[*:1])[*:2]; X29 = COc1ccc(B(O)O[*:3])c(CNC[C@H](N[*:1])C(=O)[*:2])c1; X24 = O=C([C@H](CNCc1ccc(B(O)O[*:3])c(F)c1)N[*:1])[*:2]; X5 = O=C([C@H](CNCc1ccc(Cl)c(B(O)O[*:3])c1)N[*:1])[*:2]; X15 = COc1cccc(B(O)O[*:3])c1CNC[C@H](N[*:1])C(=O)[*:2]; X4 = O=C([C@H](CNCc1cc(Cl)ccc1B(O)O[*:3])N[*:1])[*:2]; X32 = O=C([C@H](CNCc1ccc(B(O)O[*:3])cc1)N[*:1])[*:2]; X2 = O=C([C@H](CNCc1ccc(B(O)O[*:3])cn1)N[*:1])[*:2]; X6 = O=C([C@H](CNCc1cccc(B(O)O[*:3])c1)N[*:1])[*:2]; X27 = O=C([C@H](CNCc1ccccc1B(O)O[*:3])N[*:1])[*:2]; Hyp = O=C(O)[C@@H]1C[C@@H](O)CN1; NMeNle = CCCC[C@H](NC)C(=O)O; NMeA = CN[C@@H](C)C(=O)O; Dab = NCC[C@H](N)C(=O)O
Target: PD-1/PD-L1 (Homo sapiens (Human), UniProt Q9NZQ7)
Assay: PD-1/PD-L1 Homogenous Time-Resolved Fluorescence (HTRF) binding assay
Details: PD-L1-His 10 nM, PD-1-Ig 20 nM; read-out: HTRF IC50
Text: Methods for Testing the Ability of Macrocyclic Peptides to Compete for the Binding of PD-1 to PD-L1 Using Homogenous Time-Resolved Fluorescence (HTRF) Binding Assays
The ability of the compounds of formula (I) to bind to PD-L1 was investigated using a PD-1/PD-L1 Homogenous Time-Resolved Fluorescence (HTRF) binding assay.
Homogenous Time-Resolved Fluorescence (HTRF) Binding Assay
The interaction of PD-1 and PD-L1 can be assessed using soluble, purified preparations of the extracellular domains of the two proteins. The PD-1 and PD-L1 protein extracellular domains were expressed as fusion proteins with detection tags, for PD-1, the tag was the Fc portion of Immunoglobulin (PD-1-Ig) and for PD-L1 it was the 6 histidine motif (PD-L1-His). All binding studies were performed in an HTRF assay buffer consisting of dPBS supplemented with 0.1% […] bovine serum albumin and 0.05% (v/v) Tween-20. For the h/PD-L1-His binding assay, inhibitors were pre-incubated with PD-L1-His (10 nM final) for 15 m in 4 μl of assay buffer, followed by addition of PD-1-Ig (20 nM final) in 1 μl of assay buffer and further incubation for 15 m. HTRF detection was achieved using europium cryptate-labeled anti-Ig (1 nM final) and allophycocyanin (APC) labeled anti-His (20 nM final). Antibodies were diluted in HTRF detection buffer and 5 μl was dispensed on top of the binding reaction. The reaction mixture was allowed to equilibrate for 30 minutes and the resulting signal (665 nm/620 nm ratio) was obtained using an EnVision fluorometer. Additional binding assays were established between the human proteins PD-1-Ig/PD-L2-His (20 & 5 nM, respectively) and CD80-His/PD-L1-Ig (100 & 10 nM, respectively).
Recombinant Proteins: Human PD-1 (25-167) with a C-terminal human Fc domain of immunoglobulin G (Ig) epitope tag [hPD-1 (25-167)-3S-IG] and human PD-L1 (18-239) with a C-terminal His epitope tag [hPD-L1(18-239)-TVMV-His] were expressed in HEK293T cells and purified sequentially by ProteinA affinity chromatography and size exclusion chromatography. Human PD-L2-His and CD80-His was obtained through commercial sources.
Table 1 lists the IC50 values for representative examples of this disclosure measured in the PD-1/PD-L1 Homogenous Time-Resolved Fluorescence (HTRF) binding assay.

PD-1/PD-L1, sequence (Q9NZQ7 18-239): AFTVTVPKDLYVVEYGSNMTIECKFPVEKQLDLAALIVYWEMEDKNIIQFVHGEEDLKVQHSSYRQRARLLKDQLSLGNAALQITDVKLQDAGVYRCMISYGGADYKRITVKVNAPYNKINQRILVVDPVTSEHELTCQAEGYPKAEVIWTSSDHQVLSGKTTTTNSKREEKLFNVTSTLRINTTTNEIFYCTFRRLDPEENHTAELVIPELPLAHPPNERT

Structure (SMILES)	IC50
CCCC[C@H]1C(=O)N(C)[C@@H](CCCC)C(=O)N[C@@H](CC(C)C)C(=O)N[C@H](C(=O)NCC(N)=O)CSCC(=O)N[C@@H](Cc2ccc(O)cc2)C(=O)N(C)[C@@H](C)C(=O)N[C@@H](CC(N)=O)C(=O)N2CCC[C@H]2C(=O)N[C@H]2CNCc3cccc(c3)B(O)OC(=O)Cn3cc(c4ccccc43)C[C@H](NC(=O)[C@H](CCN)NC(=O)[C@H](Cc3c[nH]c4ccccc34)NC(=O)[C@@H]3C[C@@H](O)CN3C(=O)[C@H](CC(C)C)NC2=O)C(=O)N1C [Example 1001] ({CH2CO}-Y[NMeA]NP[X6]L[Hyp]W[Dab][Trp(1-CH2CO)][NMeNle][NMeNle]LCG-NH2; ester 5-10; thioether N-14)	3.8 nM
CCCC[C@H]1C(=O)N(C)[C@@H](CCCC)C(=O)N[C@@H](CC(C)C)C(=O)N[C@H](C(=O)NCC(N)=O)CSCC(=O)N[C@@H](Cc2ccc(O)cc2)C(=O)N(C)[C@@H](C)C(=O)N[C@@H](CC(N)=O)C(=O)N2CCC[C@H]2C(=O)N[C@H]2CNCc3ccc(cc3)B(O)OC(=O)Cn3cc(c4ccccc43)C[C@H](NC(=O)[C@H](CCN)NC(=O)[C@H](Cc3c[nH]c4ccccc34)NC(=O)[C@@H]3C[C@@H](O)CN3C(=O)[C@H](CC(C)C)NC2=O)C(=O)N1C [Example 1002] ({CH2CO}-Y[NMeA]NP[X32]L[Hyp]W[Dab][Trp(1-CH2CO)][NMeNle][NMeNle]LCG-NH2; ester 5-10; thioether N-14)	3.5 nM
CCCC[C@H]1C(=O)N(C)[C@@H](CCCC)C(=O)N[C@@H](CC(C)C)C(=O)N[C@H](C(=O)NCC(N)=O)CSCC(=O)N[C@@H](Cc2ccc(O)cc2)C(=O)N(C)[C@@H](C)C(=O)N[C@@H](CC(N)=O)C(=O)N2CCC[C@H]2C(=O)N[C@H]2CNCc3ccccc3B(O)OC(=O)Cn3cc(c4ccccc43)C[C@H](NC(=O)[C@H](CCN)NC(=O)[C@H](Cc3c[nH]c4ccccc34)NC(=O)[C@@H]3C[C@@H](O)CN3C(=O)[C@H](CC(C)C)NC2=O)C(=O)N1C [Example 1003] ({CH2CO}-Y[NMeA]NP[X27]L[Hyp]W[Dab][Trp(1-CH2CO)][NMeNle][NMeNle]LCG-NH2; ester 5-10; thioether N-14)	7.8 nM
CCCC[C@H]1C(=O)N(C)[C@@H](CCCC)C(=O)N[C@@H](CC(C)C)C(=O)N[C@H](C(=O)NCC(N)=O)CSCC(=O)N[C@@H](Cc2ccc(O)cc2)C(=O)N(C)[C@@H](C)C(=O)N[C@@H](CC(N)=O)C(=O)N2CCC[C@H]2C(=O)N[C@H]2CNCc3ccc(cc3)B3OB(O3)c3ccc(cc3)CNCC[C@H](NC(=O)[C@H](Cc3c[nH]c4ccccc34)NC(=O)[C@@H]3C[C@@H](O)CN3C(=O)[C@H](CC(C)C)NC2=O)C(=O)N[C@@H](Cc2cn(CC(=O)O)c3ccccc23)C(=O)N1C [Example 1004]	6.3 nM
CCCC[C@H]1C(=O)N(C)[C@@H](CCCC)C(=O)N[C@@H](CC(C)C)C(=O)N[C@H](C(=O)NCC(N)=O)CSCC(=O)N[C@@H](Cc2ccc(O)cc2)C(=O)N(C)[C@@H](C)C(=O)N[C@@H](CC(N)=O)C(=O)N2CCC[C@H]2C(=O)N[C@H]2CNCc3ccc(cc3)B3OB(O3)c3cccc(c3)CNCC[C@H](NC(=O)[C@H](Cc3c[nH]c4ccccc34)NC(=O)[C@@H]3C[C@@H](O)CN3C(=O)[C@H](CC(C)C)NC2=O)C(=O)N[C@@H](Cc2cn(CC(=O)O)c3ccccc23)C(=O)N1C [Example 1005]	7.1 nM
CCCC[C@H]1C(=O)N(C)[C@@H](CCCC)C(=O)N[C@@H](CC(C)C)C(=O)N[C@H](C(=O)NCC(N)=O)CSCC(=O)N[C@@H](Cc2ccc(O)cc2)C(=O)N(C)[C@@H](C)C(=O)N[C@@H](CC(N)=O)C(=O)N2CCC[C@H]2C(=O)N[C@H]2CNCc3cc(OC)ccc3B(O)OC(=O)Cn3cc(c4ccccc43)C[C@H](NC(=O)[C@H](CCN)NC(=O)[C@H](Cc3c[nH]c4ccccc34)NC(=O)[C@@H]3C[C@@H](O)CN3C(=O)[C@H](CC(C)C)NC2=O)C(=O)N1C [Example 1006] ({CH2CO}-Y[NMeA]NP[X29]L[Hyp]W[Dab][Trp(1-CH2CO)][NMeNle][NMeNle]LCG-NH2; ester 5-10; thioether N-14)	9 nM
CCCC[C@H]1C(=O)N(C)[C@@H](CCCC)C(=O)N[C@@H](CC(C)C)C(=O)N[C@H](C(=O)NCC(N)=O)CSCC(=O)N[C@@H](Cc2ccc(O)cc2)C(=O)N(C)[C@@H](C)C(=O)N[C@@H](CC(N)=O)C(=O)N2CCC[C@H]2C(=O)N[C@H]2CNCc3cc(F)c(c(F)c3)B(O)OC(=O)Cn3cc(c4ccccc43)C[C@H](NC(=O)[C@H](CCN)NC(=O)[C@H](Cc3c[nH]c4ccccc34)NC(=O)[C@@H]3C[C@@H](O)CN3C(=O)[C@H](CC(C)C)NC2=O)C(=O)N1C [Example 1007] ({CH2CO}-Y[NMeA]NP[X25]L[Hyp]W[Dab][Trp(1-CH2CO)][NMeNle][NMeNle]LCG-NH2; ester 5-10; thioether N-14)	9.9 nM
CCCC[C@H]1C(=O)N(C)[C@@H](CCCC)C(=O)N[C@@H](CC(C)C)C(=O)N[C@H](C(=O)NCC(N)=O)CSCC(=O)N[C@@H](Cc2ccc(O)cc2)C(=O)N(C)[C@@H](C)C(=O)N[C@@H](CC(N)=O)C(=O)N2CCC[C@H]2C(=O)N[C@H]2CNCc3cc(Cl)ccc3B(O)OC(=O)Cn3cc(c4ccccc43)C[C@H](NC(=O)[C@H](CCN)NC(=O)[C@H](Cc3c[nH]c4ccccc34)NC(=O)[C@@H]3C[C@@H](O)CN3C(=O)[C@H](CC(C)C)NC2=O)C(=O)N1C [Example 1008] ({CH2CO}-Y[NMeA]NP[X4]L[Hyp]W[Dab][Trp(1-CH2CO)][NMeNle][NMeNle]LCG-NH2; ester 5-10; thioether N-14)	6.7 nM
CCCC[C@H]1C(=O)N(C)[C@@H](CCCC)C(=O)N[C@@H](CC(C)C)C(=O)N[C@H](C(=O)NCC(N)=O)CSCC(=O)N[C@@H](Cc2ccc(O)cc2)C(=O)N(C)[C@@H](C)C(=O)N[C@@H](CC(N)=O)C(=O)N2CCC[C@H]2C(=O)N[C@H]2CNCc3ccc(c(F)c3)B(O)OC(=O)Cn3cc(c4ccccc43)C[C@H](NC(=O)[C@H](CCN)NC(=O)[C@H](Cc3c[nH]c4ccccc34)NC(=O)[C@@H]3C[C@@H](O)CN3C(=O)[C@H](CC(C)C)NC2=O)C(=O)N1C [Example 1009] ({CH2CO}-Y[NMeA]NP[X24]L[Hyp]W[Dab][Trp(1-CH2CO)][NMeNle][NMeNle]LCG-NH2; ester 5-10; thioether N-14)	2.6 nM
CCCC[C@H]1C(=O)N(C)[C@@H](CCCC)C(=O)N[C@@H](CC(C)C)C(=O)N[C@H](C(=O)NCC(N)=O)CSCC(=O)N[C@@H](Cc2ccc(O)cc2)C(=O)N(C)[C@@H](C)C(=O)N[C@@H](CC(N)=O)C(=O)N2CCC[C@H]2C(=O)N[C@H]2CNCc3ccc(cn3)B(O)OC(=O)Cn3cc(c4ccccc43)C[C@H](NC(=O)[C@H](CCN)NC(=O)[C@H](Cc3c[nH]c4ccccc34)NC(=O)[C@@H]3C[C@@H](O)CN3C(=O)[C@H](CC(C)C)NC2=O)C(=O)N1C [Example 1010] ({CH2CO}-Y[NMeA]NP[X2]L[Hyp]W[Dab][Trp(1-CH2CO)][NMeNle][NMeNle]LCG-NH2; ester 5-10; thioether N-14)	8.6 nM
CCCC[C@H]1C(=O)N(C)[C@@H](CCCC)C(=O)N[C@@H](CC(C)C)C(=O)N[C@H](C(=O)NCC(N)=O)CSCC(=O)N[C@@H](Cc2ccc(O)cc2)C(=O)N(C)[C@@H](C)C(=O)N[C@@H](CC(N)=O)C(=O)N2CCC[C@H]2C(=O)N[C@H]2CNCc3ccc(Cl)c(c3)B(O)OC(=O)Cn3cc(c4ccccc43)C[C@H](NC(=O)[C@H](CCN)NC(=O)[C@H](Cc3c[nH]c4ccccc34)NC(=O)[C@@H]3C[C@@H](O)CN3C(=O)[C@H](CC(C)C)NC2=O)C(=O)N1C [Example 1011] ({CH2CO}-Y[NMeA]NP[X5]L[Hyp]W[Dab][Trp(1-CH2CO)][NMeNle][NMeNle]LCG-NH2; ester 5-10; thioether N-14)	6.4 nM
CCCC[C@H]1C(=O)N(C)[C@@H](CCCC)C(=O)N[C@@H](CC(C)C)C(=O)N[C@H](C(=O)NCC(N)=O)CSCC(=O)N[C@@H](Cc2ccc(O)cc2)C(=O)N(C)[C@@H](C)C(=O)N[C@@H](CC(N)=O)C(=O)N2CCC[C@H]2C(=O)N[C@H]2CNCc3c(OC)cccc3B(O)OC(=O)Cn3cc(c4ccccc43)C[C@H](NC(=O)[C@H](CCN)NC(=O)[C@H](Cc3c[nH]c4ccccc34)NC(=O)[C@@H]3C[C@@H](O)CN3C(=O)[C@H](CC(C)C)NC2=O)C(=O)N1C [Example 1012] ({CH2CO}-Y[NMeA]NP[X15]L[Hyp]W[Dab][Trp(1-CH2CO)][NMeNle][NMeNle]LCG-NH2; ester 5-10; thioether N-14)	3 nM

Reference: US20230365627A1, “MACROCYCLIC PEPTIDE BORONATE IMMUNOMODULATORS” (Bristol-Myers Squibb Company, priority 2020, published 2023)
